Target: T1, PDE5A1 (human PDE5 from platelets) (Homo sapiens, UniProt O76074)
T1 construct: from tissue; host or cells: platelets from fresh blood of human donors (10,000 g supernatant of sonified platelets)
Assay: Inhibition of type 5 phosphodiesterase (PDE5) activity, modified SPA test
Format: biochemical
Conditions: PDE5-containing human platelet lysate, 0.5 μM cGMP, value classes, read-out: PDE5A1 inhibitory values [measured as −logIC50 (mol/l)] (converted)
Experimental: Method for Measuring Inhibition of the Type 5 Phosphodiesterase (PDE5) Activity:
As a source for human PDE5, platelets are used. For that purpose, 150 ml fresh blood from human donors anticoagulated with citrate [final concentration 0.3% (w/v)] is centrifuged at 200 g for 10 min to obtain the so-called platelet-rich-plasma (PRP) as a supernatant. 1/10 volume of ACD solution (85 mM Na3-citrate, 111 mM D-glucose, 71 mM citric acid, pH 4.4) is added to 9/10 volume of PRP. After centrifugation (1,400 g, 10 min) the cell pellet is resuspended in 3 ml homogenization buffer (NaCl 140 mM, KCl 3.8 mM, EGTA (ethylene glycol tetraacetic acid) 1 mM, MgCl2 1 mM, Tris-HCl 20 mM, beta-mercaptoethanol 1 mM, pH 8.2) plus protease-inhibitor mix giving rise to the final concentrations of 0.5 mM Pefablock (Roche), 10 μM Leupeptin, 5 μM Trypsininhibitor, 2 mM Benzamidin and 10 μM Pepstatin A. The suspension is sonified and thereafter centrifuged for 15 min at 10,000 g. The resulting supernatant (platelet lysate) is used for enzymatic testings.
PDE5A1 activity is inhibited by the compounds of the present subject matter in a modified SPA (scintillation proximity assay) test, supplied by Amersham Biosciences (see procedural instructions “phosphodiesterase [3H]cAMP SPA enzyme assay, code TRKQ 7090”), carried out in 96-well microtitre plates (MTP's). The test volume is 100 μl and contains 20 mM Tris buffer (pH 7.4), 0.1 mg of BSA (bovine serum albumin)/ml, 5 mM Mg^2+, 1 μM motapizone, 10 nM PDE2 inhibitor 2-(3,4-dimethoxybenzyl)-7-[(1R,2R)-2-hydroxy-1-(2-phenylethyl)propyl]-5-methylimidazo[5,1-t][1,2,4]triazin-4(3H)-one, 0.5 μM cGMP (cyclic guanosine monophosphate) (including about 50,000 cpm of [3H]cGMP as a tracer), 1 μl of the respective compound dilution in dimethylsulfoxide (DMSO) and sufficient PDE5-containing platelet lysat (10,000×g supernatant, see above) to ensure that 10-20 wt % of the cGMP is converted under the said experimental conditions. […] After a preincubation of 5 min at 37° C., the reaction is started by adding the substrate (cGMP) and the assay is incubated for a further 15 min; after that, it is stopped by adding SPA beads (50 μl). In accordance with the manufacturer's instructions, the SPA beads had previously been resuspended in water, but are then diluted 1:3 (v/v) in water; the diluted solution also contains 3 mM 8-methoxymethyl-3-isobutyl-1-methylxanthine (IBMX) to ensure a complete PDE activity stop. After the beads have been sedimented (>30 min), the MTP's are analyzed in commercially available luminescence detection devices. The corresponding IC50 values of the compounds for the inhibition of PDE activity are determined from the concentration-effect curves by means of non-linear regression.

SMILES | IC50 [nM]
CC(=O)N1CC[C@@H](NC(=O)c2c(C)[nH]c3c(-c4cc(F)ccc4OCC4CC4)ccnc23)[C@H](O)C1 (relative stereo) [Example E28, N-[(3R*,4R*)-1-Acetyl-3-hydroxypiperidin-4-yl]-7-[2-(cyclopropylmethoxy)-5-fluorophenyl]-2-methyl-1H-pyrrolo[3,2-b]pyridine-3-carboxamide] | 1 to 10
CCC(=O)N1CC[C@@H](NC(=O)c2c(C)[nH]c3c(-c4cc(F)ccc4OCC4CC4)ccnc23)[C@H](O)C1 (relative stereo) [Example E29, 7-[2-(Cyclopropylmethoxy)-5-fluorophenyl]-N-[(3R*,4R*)-3-hydroxy-1-propanoylpiperidin-4-yl]-2-methyl-1H-pyrrolo[3,2-b]pyridine-3-carboxamide] | 1 to 10
COCC(=O)N1CC[C@@H](NC(=O)c2c(C)[nH]c3c(-c4cc(F)ccc4OCC4CC4)ccnc23)[C@H](O)C1 (relative stereo) [Example E30, 7-[2-(Cyclopropylmethoxy)-5-fluorophenyl]-N-[(3R*,4R*)-3-hydroxy-1-(methoxyacetyl)piperidin-4-yl]-2-methyl-1H-pyrrolo[3,2-b]pyridine-3-carboxamide] | 1 to 10
COc1ccc(OCC2CC2)c(-c2ccnc3c(C(=O)N[C@@H]4CN(C(C)=O)C[C@H]4O)c(C)[nH]c23)c1 (relative stereo) [Example E49, N-[(3R*,4R*)-1-Acetyl-4-hydroxypyrrolidin-3-yl]-7-[2-(cyclopropylmethoxy)-5-methoxyphenyl]-2-methyl-1H-pyrrolo[3,2-b]pyridine-3-carboxamide] | 1 to 10
CCC(=O)N1C[C@@H](O)[C@H](NC(=O)c2c(C)[nH]c3c(-c4cc(OC)ccc4OCC4CC4)ccnc23)C1 (relative stereo) [Example E50, 7-[2-(Cyclopropylmethoxy)-5-methoxyphenyl]-N-[(3R*,4R*)-4-hydroxy-1-propanoylpyrrolidin-3-yl]-2-methyl-1H-pyrrolo[3,2-b]pyridine-3-carboxamide] | 1 to 10
COCC(=O)N1C[C@@H](O)[C@H](NC(=O)c2c(C)[nH]c3c(-c4cc(OC)ccc4OCC4CC4)ccnc23)C1 (relative stereo) [Example E51, 7-[2-(Cyclopropylmethoxy)-5-methoxyphenyl]-N-[(3R*,4R*)-4-hydroxy-1-(methoxyacetyl)pyrrolidin-3-yl]-2-methyl-1H-pyrrolo[3,2-b]pyridine-3-carboxamide] | 1 to 10
COc1cc(-c2ccnc3c(C(=O)N[C@@H]4CN(C(C)=O)C[C@H]4O)c(C)[nH]c23)c(OCC2CC2)cc1F (relative stereo) [Example E70, N-[(3R*,4R*)-1-Acetyl-4-hydroxypyrrolidin-3-yl]-7-[2-(cyclopropylmethoxy)-4-fluoro-5-methoxyphenyl]-2-methyl-1H-pyrrolo[3,2-b]pyridine-3-carboxamide] | < 1
CCC(=O)N1C[C@@H](O)[C@H](NC(=O)c2c(C)[nH]c3c(-c4cc(OC)c(F)cc4OCC4CC4)ccnc23)C1 (relative stereo) [Example E71, 7-[2-(Cyclopropylmethoxy)-4-fluoro-5-methoxyphenyl]-N-[(3R*,4R*)-4-hydroxy-1-propanoylpyrrolidin-3-yl]-2-methyl-1H-pyrrolo[3,2-b]pyridine-3-carboxamide] | < 1
COCC(=O)N1C[C@@H](O)[C@H](NC(=O)c2c(C)[nH]c3c(-c4cc(OC)c(F)cc4OCC4CC4)ccnc23)C1 (relative stereo) [Example E72, 7-[2-(Cyclopropylmethoxy)-4-fluoro-5-methoxyphenyl]-N-[(3R*,4R*)-4-hydroxy-1-(methoxyacetyl)pyrrolidin-3-yl]-2-methyl-1H-pyrrolo[3,2-b]pyridine-3-carboxamide] | < 1
COc1cc(-c2ccnc3c(C(=O)N[C@@H]4CCN(C(C)=O)C[C@H]4O)c(C)[nH]c23)c(OCC2CC2)cc1F (relative stereo) [Example E73, N-[(3R*,4R*)-1-Acetyl-3-hydroxypiperidin-4-yl]-7-[2-(cyclopropylmethoxy)-4-fluoro-5-methoxyphenyl]-2-methyl-1H-pyrrolo[3,2-b]pyridine-3-carboxamide] | < 1
CCC(=O)N1CC[C@@H](NC(=O)c2c(C)[nH]c3c(-c4cc(OC)c(F)cc4OCC4CC4)ccnc23)[C@H](O)C1 (relative stereo) [Example E74, 7-[2-(Cyclopropylmethoxy)-4-fluoro-5-methoxyphenyl]-N-[(3R*,4R*)-3-hydroxy-1-propanoylpiperidin-4-yl]-2-methyl-1H-pyrrolo[3,2-b]pyridine-3-carboxamide] | < 1
COCC(=O)N1CCC(NC(=O)c2c(C)[nH]c3c(-c4c(OCC5CC5)ccc5c4OCO5)ccnc23)CC1 [Example E03, 7-[5-(Cyclopropylmethoxy)-1,3-benzodioxol-4-yl]-N-[1-(methoxyacetyl)piperidin-4-yl]-2-methyl-1H-pyrrolo[3,2-b]pyridine-3-carboxamide] | < 1
CCOC(=O)N1CCC(NC(=O)c2c(C)[nH]c3c(-c4c(OCC5CC5)ccc5c4OCO5)ccnc23)CC1 [Example E04, Ethyl 4-[({7-[5-(cyclopropylmethoxy)-1,3-benzodioxol-4-yl]-2-methyl-1H-pyrrolo[3,2-b]pyridin-3-yl}carbonyl)amino]piperidine-1-carboxylate] | < 1

Second part, the molecule after the results:

IC50 [nM] | SMILES
1 to 10 | COc1ccc(OCC2CC2)c(-c2ccnc3c(C(=O)NC4CN(C(=O)C(C)O)CC4O)c(C)[nH]c23)c1 (mixture of isomers) [Example F33, Diastereomeric mixture of 7-[2-(Cyclopropylmethoxy)-5-methoxyphenyl]-N-{(3R*,4R*)-4-hydroxy-1-[(2S)-2-hydroxypropanoyl]pyrrolidin-3-yl}-2-methyl-1H-pyrrolo[3,2-b]pyridine-3-carboxamide and Diastereomeric mixture of 7-[2-(cyclopropylmethoxy)-5-methoxyphenyl]-N-{(3S*,4S*)-4-hydroxy-1-[(2S)-2-hydroxypropanoyl]pyrrolidin-3-yl}-2-methyl-1H-pyrrolo[3,2-b]pyridine-3-carboxamide]
< 1 | COCC(=O)N1CC[C@@H](NC(=O)c2c(C)[nH]c3c(-c4cc(OC)c(F)cc4OCC4CC4)ccnc23)[C@H](O)C1 (relative stereo) [Example E75, 7-[2-(Cyclopropylmethoxy)-4-fluoro-5-methoxyphenyl]-N-[(3R*,4R*)-3-hydroxy-1-(methoxyacetyl)piperidin-4-yl]-2-methyl-1H-pyrrolo[3,2-b]pyridine-3-carboxamide]
1 to 10 | Cc1[nH]c2c(-c3cc(F)ccc3OCC3CC3)ccnc2c1C(=O)N[C@@H]1CCN(C(=O)CO)C[C@H]1O (relative stereo) [Example F18, 7-[2-(Cyclopropylmethoxy)-5-fluorophenyl]-N-[rel.(3R,4R)-3-hydroxy-1-(hydroxyacetyl)piperidin-4-yl]-2-methyl-1H-pyrrolo[3,2-b]pyridine-3-carboxamide]
1 to 10 | COc1ccc(OCC2CC2)c(-c2ccnc3c(C(=O)N[C@@H]4CN(C(=O)CO)C[C@H]4O)c(C)[nH]c23)c1 (relative stereo) [Example F32, 7-[2-(Cyclopropylmethoxy)-5-methoxyphenyl]-N-[(3R*,4R*)-4-hydroxy-1-(hydroxyacetyl)pyrrolidin-3-yl]-2-methyl-1H-pyrrolo[3,2-b]pyridine-3-carboxamide]
< 1 | COc1cc(-c2ccnc3c(C(=O)N[C@@H]4CN(C(=O)CO)C[C@H]4O)c(C)[nH]c23)c(OCC2CC2)cc1F (relative stereo) [Example F46, 7-[2-(Cyclopropylmethoxy)-4-fluoro-5-methoxyphenyl]-N-[(3R*,4R*)-4-hydroxy-1-(hydroxyacetyl)pyrrolidin-3-yl]-2-methyl-1H-pyrrolo[3,2-b]pyridine-3-carboxamide]
< 1 | COc1cc(-c2ccnc3c(C(=O)N[C@@H]4CCN(C(=O)CO)C[C@H]4O)c(C)[nH]c23)c(OCC2CC2)cc1F (relative stereo) [Example F48, 7-[2-(Cyclopropylmethoxy)-4-fluoro-5-methoxyphenyl]-N-[(3R*,4R*)-3-hydroxy-1-(hydroxyacetyl)piperidin-4-yl]-2-methyl-1H-pyrrolo[3,2-b]pyridine-3-carboxamide]

Reference: patent US8816085B2 (Takeda GmbH, priority 2009, dated 2014)
